Measured values as given in patent publication US8247530B2, “N-alkylated cyclic peptide melanocortin agonists” (Palatin Technologies, Inc., priority 2005, dated 2012).
Where a SMILES comes first, the peptide text is derived from it. Bridges are numbered along the chain shown (N, C = ends). [ ]: non-standard residue; d: D form. 1Nal = N[C@@H](Cc1cccc2ccccc12)C(=O)O; Nle = CCCC[C@H](N)C(=O)O

Columns and labels:
[1] = target: T1, MC1-R (B-16 mouse melanoma cells) (Mus musculus, UniProt Q01727); test: Competitive inhibition binding assay using [I125]-NDP-α-MSH, MC1-R; details: radioligand [I125]-NDP-α-MSH, B-16 mouse melanoma membranes
T1 construct: B-16 mouse melanoma cells (containing MC1-R); endogenous in cells; host or cells: B-16 mouse melanoma cells
T1 sequence (Q01727 whole entry): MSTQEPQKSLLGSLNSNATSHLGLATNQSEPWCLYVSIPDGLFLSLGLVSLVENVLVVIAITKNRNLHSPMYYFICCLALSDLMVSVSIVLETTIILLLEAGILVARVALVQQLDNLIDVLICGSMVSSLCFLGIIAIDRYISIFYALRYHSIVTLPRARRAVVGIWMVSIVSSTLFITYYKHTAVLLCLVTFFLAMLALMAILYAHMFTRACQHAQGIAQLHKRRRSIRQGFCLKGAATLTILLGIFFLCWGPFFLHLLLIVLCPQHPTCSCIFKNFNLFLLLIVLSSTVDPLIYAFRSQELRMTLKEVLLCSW
Description: The assay mixture was incubated for 60 minutes at 37° C., then filtered and the membranes washed three times with ice cold phosphate buffered saline. The filter was dried and counted in a gamma counter for remaining radioactivity bound to the membranes. […] Each assay was conducted in triplicate.

MC4-R [2] = target: T2, MC4-R (Homo sapiens, UniProt P32245); test: Competitive inhibition Ki (AgRP), MC4-R; assay type: binding; details: AgRP as competing ligand
T2 construct: expressed in transfected cells; host or cells: HEK-293
T2 sequence (P32245 whole entry): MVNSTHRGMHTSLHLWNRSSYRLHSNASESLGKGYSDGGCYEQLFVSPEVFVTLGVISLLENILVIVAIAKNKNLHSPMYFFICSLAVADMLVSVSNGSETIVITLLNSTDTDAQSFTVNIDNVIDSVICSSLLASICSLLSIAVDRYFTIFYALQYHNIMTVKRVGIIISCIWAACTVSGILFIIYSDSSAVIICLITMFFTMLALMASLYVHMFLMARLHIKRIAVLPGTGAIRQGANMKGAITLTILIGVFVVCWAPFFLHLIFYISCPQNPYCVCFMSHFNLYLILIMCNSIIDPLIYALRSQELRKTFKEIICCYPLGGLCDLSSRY

hMC3-R (HEK-293 cells) = target: T3, hMC3-R (HEK-293 cells) (Homo sapiens, UniProt P41968); test: cAMP functional assay for agonist/antagonist status, MC3-R; assay type: cell-based; details: for EC50: cAMP accumulation; for agonist/antagonist status as to MC3-R: cAMP assay; for efficacy relative to NDP-α-MSH, MC3-R: cAMP response ratio to NDP-α-MSH
T3 construct: expressed in transfected cells; host or cells: HEK-293
T3 sequence (P41968 whole entry): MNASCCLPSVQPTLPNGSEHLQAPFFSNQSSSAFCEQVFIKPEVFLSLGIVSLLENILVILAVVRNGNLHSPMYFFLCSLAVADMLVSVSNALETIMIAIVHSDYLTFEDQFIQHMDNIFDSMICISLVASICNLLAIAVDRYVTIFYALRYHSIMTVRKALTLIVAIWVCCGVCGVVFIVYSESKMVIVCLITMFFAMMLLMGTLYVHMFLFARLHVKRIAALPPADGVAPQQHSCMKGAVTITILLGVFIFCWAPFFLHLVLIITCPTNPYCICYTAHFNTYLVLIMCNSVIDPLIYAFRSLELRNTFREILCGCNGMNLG
Description: (§1) Functional evaluation of peptides at melanocortin receptors was performed by measuring the accumulation of intracellular cAMP in HEK-293 cells expressing hMC3-R, hMC4-R or hMC5-R, and in B-16 mouse melanoma cells expressing MC1-R. Cells suspended in Earle's Balanced Salt Solution containing 10 mM HEPES (pH 7.5), 5 mM MgCl2, 1 mM glutamine, 0.5% albumin and 0.3 mM 3-isobutyl-1-methyl-xanthine, a phosphodiesterase inhibitor, were plated in 96 well plates at a density of 0.5×10^5 cells per well. Cells were incubated with the test peptides in the presence or absence of NDP-α-MSH for 1 hour at 37° C. cAMP levels in the cell lysates were measured using an EIA kit (Amersham). Data analysis and EC50 values were determined using nonlinear regression analysis with Prism Graph-Pad software.
(§2) The agonist/antagonist status with respect to MC1-R, MC4-R and MC5-R of certain peptides of the invention was determined. Antagonistic activity was determined by measuring the inhibition of α-MSH-induced or NDP-α-MSH-induced cAMP levels following exposure to the peptides as in the preceding descriptions.

hMC4-R (HEK-293 cells) = target: T4, hMC4-R (HEK-293 cells) (Homo sapiens, UniProt P32245); test: cAMP functional assay for agonist/antagonist status, MC4-R; assay type: cell-based; details: for agonist/antagonist status as to MC4-R: cAMP assay; for efficacy relative to NDP-α-MSH, MC4-R: cAMP response ratio to NDP-α-MSH; for EC50: cAMP accumulation
T4 construct: expressed in transfected cells; host or cells: HEK-293
T4 sequence (P32245 whole entry): as the sequence (P32245 whole entry) above
Description: as §1, §2
Evaluation of the molecules to elicit a functional response in HEK-293 cells expressing hMC4-R for agonistic activity was done by measuring the accumulation of intracellular cAMP following treatment. Confluent HEK-293 cells over-expressing MC4-R receptors were detached by enzyme free cell suspension buffer. Cells were suspended in Earle's Balanced Salt Solution containing 10 mM HEPES (pH 7.5), 1 mM MgCl2, 1 mM glutamine, 0.5% albumin and 0.3 mM 3-isobutyl-1-methyl-[…]. The cells were plated in a 96 well plate at a density of 0.5×10^5 cells per well and pre-incubated for 60 minutes. The cells were then challenged with the test peptides dissolved in dimethylsulfoxide (DMSO) at a concentration range of 0.05-5000 nM in a total assay volume of 200 μL for 1 hour at 37° C. The concentration of DMSO was held at 1% in the assay mixture. NDP-α-MSH was used as the reference agonist. At the end of the incubation period the cells were disrupted by the addition of 50 μL lysis buffer from the cAMP EIA kit (Amersham). Complete rupture of the cells was ensured by pipetting the cells. cAMP levels in the cell lysates were measured after appropriate dilution using the EIA kit (Amersham) method. Data analysis and EC50 values were determined by using nonlinear regression analysis with the Prism Graph-Pad software.

[3] = target: T1, MC1-R (B-16 mouse melanoma cells); test: cAMP functional assay for agonist/antagonist status, MC1-R; assay type: cell-based; details: for EC50: cAMP accumulation; for agonist/antagonist status as to MC1-R: cAMP assay; for efficacy relative to NDP-α-MSH, MC1-R: cAMP response ratio to NDP-α-MSH
Description: Data analysis and EC50 values were determined using nonlinear regression analysis with Prism Graph-Pad software.
The agonist/antagonist status with respect to MC1-R, MC4-R and MC5-R of certain peptides of the invention was determined.

male Sprague-Dawley rats = test: Penile erection induction in male rats; assay type: in vivo, rat; details: 1000 μg/kg IV, groups of 6 rats, one hour observation
Description: The ability of peptides to induce penile erection (PE) in male rats was evaluated with selected peptides. Male Sprague-Dawley rats weighing 200-250 g were kept on a 12 hour on/off light cycle with food and water ad libitum. All behavioral studies were performed between 10 a.m. and 5 p.m. Groups of 4-8 rats were administered peptides at a variety of doses via an intravenous (IV) route, and may alternatively be administered peptide by an intracerebroventricular (ICV) route. Immediately after treatment, rats were placed into individual polystyrene cages (27 cm long, 16 cm wide, and 25 cm high) for behavioral observation. […] For rats administered peptide by an ICV routes, rats are observed for two hours.
Selected peptides were tested as in Example 5. Peptide was administered by IV routes, and used at dose levels ranging from 1 μg/kg to 1000 μg/kg.

MC4-R [4] = target: T2, MC4-R; test: Competitive inhibition binding assay using [I125]-NDP-α-MSH, hMC4-R; details: radioligand [I125]-NDP-α-MSH, HEK-293 membranes; read-out: Ki (NDP-α-MSH) MC4-R
Description: (§3) The assay tube also contained a chosen concentration of the test peptide of this invention, typically a 1 μM concentration, for determining its efficacy in inhibiting the binding of [I^125]NDP-α-MSH to the receptor.
(§4) The assay mixture was incubated for 60 minutes at 37° C., then filtered and the membranes washed three times with ice cold phosphate buffered saline. The filter was dried and counted in a gamma counter for remaining radioactivity bound to the membranes. 100% specific binding was defined as the difference in radioactivity (cpm) bound to cell membranes in the absence and presence of 1 μM NDP-α-MSH. […] Each assay was conducted in triplicate. The Ki (nM) of certain peptides of the invention were determined using similar assay protocols and testing peptides over a wider dose range.

MC3-R [5] = target: T5, MC3-R (Homo sapiens, UniProt P41968); test: Competitive inhibition binding assay using [I125]-NDP-α-MSH, hMC3-R; details: radioligand [I125]-NDP-α-MSH, HEK-293 membranes; read-out: Ki (NDP-α-MSH) MC3-R
T5 construct: expressed in transfected cells; host or cells: HEK-293
T5 sequence (P41968 whole entry): as the sequence (P41968 whole entry) above
Description: as §3, §4

hMC5-R = target: T6, hMC5-R (Homo sapiens, UniProt P33032); test: Competitive inhibition binding assay using [I125]-NDP-α-MSH, hMC5-R; details: radioligand [I125]-NDP-α-MSH, HEK-293 membranes; read-out: Ki (NDP-α-MSH) MC5-R
T6 construct: expressed in transfected cells; host or cells: HEK-293
T6 sequence (P33032 whole entry): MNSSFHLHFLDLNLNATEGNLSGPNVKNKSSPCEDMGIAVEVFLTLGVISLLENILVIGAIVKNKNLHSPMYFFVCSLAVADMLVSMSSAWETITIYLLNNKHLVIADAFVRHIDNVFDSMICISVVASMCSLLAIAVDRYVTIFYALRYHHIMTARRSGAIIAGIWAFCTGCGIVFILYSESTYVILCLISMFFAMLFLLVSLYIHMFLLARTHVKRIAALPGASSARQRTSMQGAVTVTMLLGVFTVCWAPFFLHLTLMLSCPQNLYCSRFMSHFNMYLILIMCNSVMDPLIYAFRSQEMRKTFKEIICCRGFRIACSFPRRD
Description: as §3, §4

MC3-R [6] = target: T5, MC3-R; test: Competitive inhibition Ki (AgRP), MC3-R; assay type: binding; details: AgRP as competing ligand
Description: as §4

Row | Structure (SMILES) | Ki [1] | Ki (MC4-R [2]) | EC50 (hMC3-R (HEK-293 cells)) | agonist/antagonist status as to MC3-R (hMC3-R (HEK-293 cells)) | efficacy relative to NDP-α-MSH, MC3-R (hMC3-R (HEK-293 cells)) | agonist/antagonist status as to MC4-R (hMC4-R (HEK-293 cells)) | efficacy relative to NDP-α-MSH, MC4-R (hMC4-R (HEK-293 cells)) | EC50 [3] | agonist/antagonist status as to MC1-R [3] | efficacy relative to NDP-α-MSH, MC1-R [3] | rats exhibiting at least one PE (male Sprague-Dawley rats) | EC50 (hMC4-R (HEK-293 cells)) | Ki (MC4-R [4]) | Ki (MC3-R [5]) | Ki (hMC5-R) | Ki (MC3-R [6])
1 | CCCC[C@H](NC(C)=O)C(=O)N[C@H]1CC(=O)NCCCC[C@@H](C(=O)NCC)NC(=O)[C@H](Cc2cccc3ccccc23)NC(=O)[C@H](CCCNC(=N)N)NC(=O)[C@@H](Cc2ccccc2)NC(=O)[C@H](Cc2c[nH]c3ccccc23)NC1=O [Example 18, Ac-Nle-cyclo(-Asp-Trp-D-Phe-Arg-Nal 1-Lys)-NH—CH2—CH3] (Ac-[Nle]DW[dF]R[1Nal]K-NHEt; lactam 2-7 (inferred)) | 3 nM | 26 nM | 1820 nM | partial agonist (Peptides with a ratio from 0.1 to 0.7 were classified as partial agonists) | 0.2 | partial agonist (Peptides with a ratio from 0.1 to 0.7 were classified as partial agonists) | 0.6 | 397 nM | partial agonist (Peptides with a ratio from 0.1 to 0.7 were classified as partial agonists) | 0.3 |  |  |  |  |  | 
2 | CC(=O)N[C@H]1CC(=O)NCCCC[C@@H](C(=O)N(C)C)NC(=O)[C@H](Cc2c[nH]c3ccccc23)NC(=O)[C@H](CCCNC(=N)N)NC(=O)[C@@H](Cc2ccccc2)NC(=O)[C@H](Cc2c[nH]cn2)NC1=O [Example 13, Ac-cyclo(-Asp-His-D-Phe-Arg-Trp-Lys)-N(CH3)2] | 2 nM | 18 nM | 1250 nM | agonist (response ratio compared to NDP-α-MSH of 0.7 and above were classified as full agonists) | 1.3 | partial agonist (Peptides with a ratio from 0.1 to 0.7 were classified as partial agonists) | 0.6 | 151 nM | agonist (response ratio compared to NDP-α-MSH of 0.7 and above were classified as full agonists) | 0.7 | 100% | 5 nM | 12 nM | 154 nM | > 1000 nM | 
3 | CC(=O)N[C@H]1CC(=O)NCCCC[C@@H](C(=O)N(C)C)NC(=O)[C@H](Cc2cccc3ccccc23)NC(=O)[C@H](CCCNC(=N)N)NC(=O)[C@@H](Cc2ccccc2)NC(=O)[C@H](Cc2c[nH]c3ccccc23)NC1=O [Example 15, Ac-cyclo(-Asp-Trp-D-Phe-Arg-Nal 1-Lys)-N(CH3)2] (Ac-DW[dF]R[1Nal]K-NMe2; lactam 1-6 (inferred)) | 215 nM | 233 nM |  | inactive |  | agonist (response ratio compared to NDP-α-MSH of 0.7 and above were classified as full agonists) | 0.9 |  | inactive |  |  | 1540 nM | 122 nM | 964 nM | 549 nM | > 3000 nM
4 | CC(=O)N[C@H]1CC(=O)NCCCC[C@@H](C(=O)N(C)C)NC(=O)[C@H](Cc2cccc3ccccc23)NC(=O)[C@H](CCCNC(=N)N)NC(=O)[C@@H](Cc2ccccc2)NC(=O)[C@H](Cc2c[nH]cn2)NC1=O [Example 17, Ac-cyclo(-Asp-His-D-Phe-Arg-Nal 1-Lys)-N(CH3)2] (Ac-DH[dF]R[1Nal]K-NMe2; lactam 1-6 (inferred)) | 40 nM |  | > 1000 nM | partial agonist (Peptides with a ratio from 0.1 to 0.7 were classified as partial agonists) | 0.4 | agonist (response ratio compared to NDP-α-MSH of 0.7 and above were classified as full agonists) | 0.93 | 2360 nM | agonist (response ratio compared to NDP-α-MSH of 0.7 and above were classified as full agonists) | 1.0 | 100% | 91 nM | 92 nM | > 10000 nM | > 10000 nM | 
5 | CCNC(=O)[C@@H]1CCCCNC(=O)C[C@H](NC(C)=O)C(=O)N[C@@H](Cc2c[nH]c3ccccc23)C(=O)N[C@H](Cc2ccccc2)C(=O)N[C@@H](CCCNC(=N)N)C(=O)N[C@@H](Cc2cccc3ccccc23)C(=O)N1 [Example 14, Ac-cyclo(-Asp-Trp-D-Phe-Arg-Nal 1-Lys)-NH—CH2—CH3] (Ac-DW[dF]R[1Nal]K-NHEt; lactam 1-6 (inferred)) | 166 nM | 71 nM |  | inactive |  | agonist (response ratio compared to NDP-α-MSH of 0.7 and above were classified as full agonists) | 0.7 |  | inactive |  |  | 698 nM | 45 nM | 886 nM | > 2000 nM | > 10000 nM
